Data from ChEMBL document CHEMBL3872253, “Synthesis and in vitro antiproliferative activity of C5-benzyl substituted 2-amino-pyrrolo[2,3-d]pyrimidines as potent Hsp90 inhibitors” (Bioorg Med Chem Lett, 2017).

How the values were obtained:
[1] = biological target: T1, Heat shock protein HSP90 (Homo sapiens) (UniProt P07900+P08238); assay: Inhibition of Hsp90 in human MCF7 cells assessed as proteasomal degradation of Akt after 24 hrs by Western blot analysis; type: cell-based
[2] = biological target: T1, Heat shock protein HSP90 (Homo sapiens); assay: Inhibition of HSP90 in human MCF7 cells assessed as increase in expression level of Hsp70 after 24 hrs by Western blot analysis; type: cell-based
[3] = biological target: T1, Heat shock protein HSP90 (Homo sapiens); assay: Inhibition of Hsp90 in human MCF7 cells assessed as proteasomal degradation of Her2 after 24 hrs by Western blot analysis; type: cell-based
[4] = biological target: Heat shock protein HSP 90-alpha (Homo sapiens, UniProt P07900); assay: Inhibition of FITC-labeled geldanamycin binding to human Hsp90alpha by fluorescence polarization assay
[5] = biological target: T1, Heat shock protein HSP90 (Homo sapiens); assay: Inhibition of Hsp90 in human MCF7 cells assessed as proteasomal degradation of EGFR after 24 hrs by Western blot analysis; type: cell-based
[6] = biological target: T1, Heat shock protein HSP90 (Homo sapiens); assay: Inhibition of Hsp90 in human MCF7 cells assessed as proteasomal degradation of Cdk4 after 24 hrs by Western blot analysis; type: cell-based
[7] = Growth inhibition of human HFF1 cells at 10 uM after 72 hrs by MTT assay; type: cell-based, HFF-1
[8] = Growth inhibition of human MCF7 cells at 10 uM after 72 hrs by MTT assay; type: functional; details: MCF7, 72 h
[9] = Growth inhibition of human SKBR3 cells at 10 uM after 72 hrs by MTT assay; type: functional; details: SK-BR-3, 72 h
[10] = Growth inhibition of human HCT116 cells at 10 uM after 72 hrs by MTT assay; type: functional; details: HCT-116, 72 h
[11] = cells; details: Homo sapiens, SK-MEL-5, 48 h
Description: Cytotoxicity against human SK-MEL-5 cells after 48 hrs by sulforhodamine B assay

[12] = cells; details: Homo sapiens, LOX IMVI, 48 h
Description: Cytotoxicity against human LOXIMVI cells after 48 hrs by sulforhodamine B assay

[13] = cells; details: Homo sapiens, HT-29, 48 h
Description: Cytotoxicity against human HT-29 cells after 48 hrs by sulforhodamine B assay

[14] = cells; details: Homo sapiens, SK-OV-3, 48 h
Description: Cytotoxicity against human SKOV3 cells after 48 hrs by sulforhodamine B assay

[15] = cells; details: Homo sapiens, M14, 48 h
Description: Cytotoxicity against human M14 cells after 48 hrs by sulforhodamine B assay

[16] = cells; details: Homo sapiens, 786-0, 48 h
Description: Cytotoxicity against human 786-0 cells after 48 hrs by sulforhodamine B assay

[17] = cells; details: Homo sapiens, MDA-MB-231, 48 h
Description: Cytotoxicity against human MDA-MB-231 cells after 48 hrs by sulforhodamine B assay

[18] = cells; details: Homo sapiens, SF-295, 48 h
Description: Cytotoxicity against human SF295 cells after 48 hrs by sulforhodamine B assay

[19] = cells; details: Homo sapiens, TK-10, 48 h
Description: Cytotoxicity against human TK10 cells after 48 hrs by sulforhodamine B assay

[20] = cells; details: Homo sapiens, UACC-62, 48 h
Description: Cytotoxicity against human UACC62 cells after 48 hrs by sulforhodamine B assay

[21] = cells; details: Homo sapiens, NCI-H522, 48 h
Description: Cytotoxicity against human NCI-H522 cells after 48 hrs by sulforhodamine B assay

[22] = cells; details: Homo sapiens, BT-549, 48 h
Description: Cytotoxicity against human BT549 cells after 48 hrs by sulforhodamine B assay

[23] = Cytotoxicity against human SR cells after 48 hrs by sulforhodamine B assay; type: functional
[24] = cells; details: Homo sapiens, HCT-15, 48 h
Description: Cytotoxicity against human HCT15 cells after 48 hrs by sulforhodamine B assay

[25] = cells; details: Homo sapiens, HOP-92, 48 h
Description: Cytotoxicity against human HOP92 cells after 48 hrs by sulforhodamine B assay

[26] = cells; details: Homo sapiens, CAKI-1, 48 h
Description: Cytotoxicity against human Caki1 cells after 48 hrs by sulforhodamine B assay

[27] = cells; details: Homo sapiens, SN12C, 48 h
Description: Cytotoxicity against human SN12C cells after 48 hrs by sulforhodamine B assay

[28] = cells; details: Homo sapiens, KM12, 48 h
Description: Cytotoxicity against human KM12 cells after 48 hrs by sulforhodamine B assay

[29] = cells; details: Homo sapiens, T47D, 48 h
Description: Cytotoxicity against human T47D cells after 48 hrs by sulforhodamine B assay

[30] = cells; details: Homo sapiens, DU-145, 48 h
Description: Cytotoxicity against human DU145 cells after 48 hrs by sulforhodamine B assay

[31] = cells; details: Homo sapiens, HOP-62, 48 h
Description: Cytotoxicity against human HOP62 cells after 48 hrs by sulforhodamine B assay

[32] = cells; details: Homo sapiens, Malme-3M, 48 h
Description: Cytotoxicity against human MALME-3M cells after 48 hrs by sulforhodamine B assay

[33] = cells; details: Homo sapiens, MCF7, 48 h
Description: Cytotoxicity against human MCF7 cells after 48 hrs by sulforhodamine B assay

[34] = cells; details: Homo sapiens, SK-MEL-2, 48 h
Description: Cytotoxicity against human SK-MEL-2 cells after 48 hrs by sulforhodamine B assay

[35] = cells; details: Homo sapiens, PC-3, 48 h
Description: Cytotoxicity against human PC3 cells after 48 hrs by sulforhodamine B assay

[36] = cells; details: Homo sapiens, NCI-H226, 48 h
Description: Cytotoxicity against human NCI-H226 cells after 48 hrs by sulforhodamine B assay

[37] = Cytotoxicity against human A549/ATCC cells after 48 hrs by sulforhodamine B assay; type: functional; details: A549, 48 h
[38] = cells; details: Homo sapiens, UACC-257, 48 h
Description: Cytotoxicity against human UACC257 cells after 48 hrs by sulforhodamine B assay

[39] = cells; details: Homo sapiens, U-251, 48 h
Description: Cytotoxicity against human U251 cells after 48 hrs by sulforhodamine B assay

[40] = cells; details: Homo sapiens, SF-268, 48 h
Description: Cytotoxicity against human SF268 cells after 48 hrs by sulforhodamine B assay

[41] = cells; details: Homo sapiens, RXF 393, 48 h
Description: Cytotoxicity against human RXF393 cells after 48 hrs by sulforhodamine B assay

[42] = cells; details: Homo sapiens, SNB-75, 48 h
Description: Cytotoxicity against human SNB75 cells after 48 hrs by sulforhodamine B assay

[43] = cells; details: Homo sapiens, HCT-116, 48 h
Description: Cytotoxicity against human HCT116 cells after 48 hrs by sulforhodamine B assay

[44] = Cytotoxicity against human NCI-ADR-RES cells after 48 hrs by sulforhodamine B assay; type: functional
[45] = cells; details: Homo sapiens, OVCAR-5, 48 h
Description: Cytotoxicity against human OVCAR5 cells after 48 hrs by sulforhodamine B assay

[46] = cells; details: Homo sapiens, K562, 48 h
Description: Cytotoxicity against human K562 cells after 48 hrs by sulforhodamine B assay

[47] = cells; details: Homo sapiens, IGROV-1, 48 h
Description: Cytotoxicity against human IGROV1 cells after 48 hrs by sulforhodamine B assay

[48] = cells; details: Homo sapiens, SNB-19, 48 h
Description: Cytotoxicity against human SNB19 cells after 48 hrs by sulforhodamine B assay

[49] = cells; details: Homo sapiens, OVCAR-3, 48 h
Description: Cytotoxicity against human OVCAR3 cells after 48 hrs by sulforhodamine B assay

[50] = cells; details: Homo sapiens, OVCAR-4, 48 h
Description: Cytotoxicity against human OVCAR4 cells after 48 hrs by sulforhodamine B assay

[51] = cells; details: Homo sapiens, A498, 48 h
Description: Cytotoxicity against human A498 cells after 48 hrs by sulforhodamine B assay

[52] = cells; details: Homo sapiens, NCI-H23, 48 h
Description: Cytotoxicity against human NCI-H23 cells after 48 hrs by sulforhodamine B assay

[53] = cells; details: Homo sapiens, EKVX, 48 h
Description: Cytotoxicity against human EKVX cells after 48 hrs by sulforhodamine B assay

[54] = cells; details: Homo sapiens, HL-60, 48 h
Description: Cytotoxicity against human HL-60(TB) cells after 48 hrs by sulforhodamine B assay

[55] = cells; details: Homo sapiens, UO-31, 48 h
Description: Cytotoxicity against human UO31 cells after 48 hrs by sulforhodamine B assay

[56] = cells; details: Homo sapiens, CCRF-CEM, 48 h
Description: Cytotoxicity against human CCRF-CEM cells after 48 hrs by sulforhodamine B assay

[57] = cells; details: Homo sapiens, RPMI-8226, 48 h
Description: Cytotoxicity against human RPMI8226 cells after 48 hrs by sulforhodamine B assay

[58] = Growth inhibition of human MDA-MB-468 cells after 48 hrs by sulforhodamine B assay; type: functional; details: MDA-MB-468, 48 h
[59] = cells; details: Homo sapiens, COLO 205, 48 h
Description: Cytotoxicity against human COLO205 cells after 48 hrs by sulforhodamine B assay

[60] = cells; details: Homo sapiens, SW-620, 48 h
Description: Cytotoxicity against human SW620 cells after 48 hrs by sulforhodamine B assay

[61] = Cytotoxicity against human Hs 578T cells after 48 hrs by sulforhodamine B assay; type: functional
[62] = cells; details: Homo sapiens, SK-MEL-28, 48 h
Description: Cytotoxicity against human SK-MEL-28 cells after 48 hrs by sulforhodamine B assay

[63] = cells; details: Homo sapiens, HCC 2998, 48 h
Description: Cytotoxicity against human HCC2998 cells after 48 hrs by sulforhodamine B assay

[64] = cells; details: Homo sapiens, SF-539, 48 h
Description: Cytotoxicity against human SF539 cells after 48 hrs by sulforhodamine B assay

[65] = cells; details: Homo sapiens, ACHN, 48 h
Description: Cytotoxicity against human ACHN cells after 48 hrs by sulforhodamine B assay

[66] = cells; details: Homo sapiens, NCI-H460, 48 h
Description: Cytotoxicity against human NCI-H460 cells after 48 hrs by sulforhodamine B assay

[67] = cells; details: Homo sapiens, MDA-MB-435, 48 h
Description: Cytotoxicity against human MDA-MB-435 cells after 48 hrs by sulforhodamine B assay

[68] = cells; details: Homo sapiens, OVCAR-8, 48 h
Description: Cytotoxicity against human OVCAR8 cells after 48 hrs by sulforhodamine B assay

[69] = cells; details: Homo sapiens, MOLT-4, 48 h
Description: Cytotoxicity against human MOLT4 cells after 48 hrs by sulforhodamine B assay

COc1c(C)cnc(Cn2cc(Cc3ccccc3)c3c(Cl)nc(N)nc32)c1C
inhibition [1]: Dose-dependent effect
inhibition [2]: Dose-dependent effect
inhibition [3]: Dose-dependent effect
IC50 [4]: 36 nM
inhibition [5]: Dose-dependent effect
inhibition [6]: Dose-dependent effect

COc1ccc(Cc2cn(Cc3ncc(C)c(OC)c3C)c3nc(N)nc(Cl)c23)cc1
inhibition at 72 h, 10 µM [7]: 10.1%
inhibition at 10 µM [8]: 80.1%
inhibition at 10 µM [9]: 69.4%
IC50 [4]: 94 nM
inhibition at 10 µM [10]: 80.9%

COc1c(C)cnc(Cn2cc(Cc3cccc(C)c3)c3c(Cl)nc(N)nc32)c1C
IC50 [4]: 51 nM

COc1cc(Cc2cn(Cc3ncc(C)c(OC)c3C)c3nc(N)nc(Cl)c23)ccc1Br
IC50 [4]: 79 nM

Nc1nc(Cl)c2c(Cc3ccccc3)cn(Cc3cc4c(cc3I)OCO4)c2n1
inhibition at 72 h, 10 µM [7]: 36.2%
inhibition at 10 µM [8]: 74%
inhibition at 10 µM [9]: 63.8%
IC50 [4]: 750 nM
inhibition at 10 µM [10]: 74.5%

COc1c(C)cnc(Cn2cc(Cc3ccc(C)cc3)c3c(Cl)nc(N)nc32)c1C
IC50 [4]: 58 nM

Nc1nc(Cl)c2c(Cc3ccccc3)cn(Cc3ccc4c(c3)OCO4)c2n1
inhibition at 72 h, 10 µM [7]: 11.2%
inhibition at 10 µM [8]: 54%
inhibition at 10 µM [9]: 4.32%
inhibition at 10 µM [10]: 48.8%

COc1c(C)cnc(Cn2cc(Cc3ccc(Cl)cc3)c3c(Cl)nc(N)nc32)c1C
IC50 [4]: 48 nM

Nc1nc(Cl)c2c(Cc3ccccc3)cn(Cc3cc4c(cc3Br)OCO4)c2n1
inhibition at 72 h, 10 µM [7]: 20.7%
inhibition at 10 µM [8]: 69.9%
inhibition at 10 µM [9]: 40.9%
IC50 [4]: 650 nM
inhibition at 10 µM [10]: 70.4%

COc1c(C)cnc(Cn2cc(Cc3cccc(C(F)(F)F)c3)c3c(Cl)nc(N)nc32)c1C
IC50 [4]: 8700 nM

COc1c(C)cnc(Cn2cnc3c(Cl)nc(N)nc32)c1C [BIIB021]
inhibition at 72 h, 10 µM [7]: 51.3%
inhibition at 10 µM [8]: 84.8%
inhibition at 10 µM [9]: 86.2%
inhibition at 10 µM [10]: 71.9%

CC(C)NCCCn1c(Sc2cc3c(cc2I)OCO3)nc2c(N)ncnc21 [PU-H71]
GI50 [11]: 457 nM
GI50 [12]: 79 nM
GI50 [13]: 38 nM
GI50 [14]: 45 nM
GI50 [15]: 234 nM
GI50 [16]: 513 nM
GI50 [17]: 479 nM
GI50 [18]: 145 nM
GI50 [19]: 162 nM
GI50 [20]: 372 nM
GI50 [21]: 59 nM
GI50 [22]: 1510 nM
GI50 [23]: 60 nM
GI50 [24]: 437 nM
GI50 [25]: 288 nM
GI50 [26]: 525 nM
GI50 [27]: 174 nM
GI50 [28]: 59 nM
GI50 [29]: 155 nM
GI50 [30]: 48 nM
GI50 [31]: 263 nM
GI50 [32]: 123 nM
GI50 [33]: 46 nM
GI50 [34]: 355 nM
inhibition at 10 µM [8]: 70.5%
GI50 [35]: 132 nM
GI50 [36]: 759 nM
GI50 [37]: 87 nM
GI50 [38]: 309 nM
GI50 [39]: 129 nM
GI50 [40]: 2090 nM
GI50 [41]: 759 nM
GI50 [42]: 724 nM
GI50 [43]: 63 nM
GI50 [44]: 3630 nM
GI50 [45]: 3020 nM
inhibition at 10 µM [9]: 65.3%
GI50 [46]: 71 nM
GI50 [47]: 89 nM
GI50 [48]: 646 nM
GI50 [49]: 589 nM
GI50 [50]: 33100 nM
GI50 [51]: 437 nM
GI50 [52]: 89 nM
inhibition at 10 µM [10]: 78.4%
GI50 [53]: 2510 nM
GI50 [54]: 63 nM
GI50 [55]: 324 nM
GI50 [56]: 427 nM
GI50 [57]: 1510 nM
GI50 [58]: 83 nM
GI50 [59]: 48 nM
GI50 [60]: 59 nM
GI50 [61]: 1290 nM
GI50 [62]: 417 nM
GI50 [63]: 282 nM
GI50 [64]: 851 nM
GI50 [65]: 295 nM
GI50 [66]: 58 nM
GI50 [67]: 91 nM
GI50 [68]: 155 nM
GI50 [69]: 91 nM

C=CCNC1=C2C[C@@H](C)C[C@H](OC)[C@H](O)[C@@H](C)/C=C(\C)[C@H](OC(N)=O)[C@@H](OC)/C=C\C=C(/C)C(=O)NC(=CC1=O)C2=O [TANESPIMYCIN]
inhibition at 72 h, 10 µM [7]: 65.5%
inhibition at 10 µM [8]: 79.7%
inhibition at 10 µM [9]: 88.9%
inhibition at 10 µM [10]: 74.4%
